Laboratory results: patent US10227323B2, “Glucosylceramide synthase inhibitors for the treatment of diseases” (BIOMARIN PHARMACEUTICAL INC., priority 2013, dated 2019)

Target: T1, GCS (Canis lupus familiaris, UniProt A0A8I3MXG6)
T1 sequence (A0A8I3MXG6 1-394): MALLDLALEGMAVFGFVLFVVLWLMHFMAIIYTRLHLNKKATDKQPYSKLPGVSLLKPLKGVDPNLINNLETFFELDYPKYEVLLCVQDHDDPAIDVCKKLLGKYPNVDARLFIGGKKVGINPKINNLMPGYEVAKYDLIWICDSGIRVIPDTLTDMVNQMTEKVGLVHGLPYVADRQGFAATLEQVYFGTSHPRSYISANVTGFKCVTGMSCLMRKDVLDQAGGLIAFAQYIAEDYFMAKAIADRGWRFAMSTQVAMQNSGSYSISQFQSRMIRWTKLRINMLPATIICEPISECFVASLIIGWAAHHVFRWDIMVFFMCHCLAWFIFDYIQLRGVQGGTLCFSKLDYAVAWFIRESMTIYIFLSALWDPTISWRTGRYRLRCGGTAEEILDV
Experiment: Assay 1: GCS Enzymatic Assay (MDCK cell lysate, C6-NBD-Ceramide, LC/MS)
Format: biochemical, canine
Conditions: Table 1; MDCK cell lysate; read-out: IC50 (nM) generated from Assay 1
In short: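 LC/MS/MS measurement of glucosylceramide and NBD-ceramide after a 1 h, 37 °C reaction with 100 μM UDP-glucose and 10 μM C6-NBD-ceramide gave IC50s or percent inhibition.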

Compound	IC50
[2H][C@@](O)(c1ccc2c(c1)OCCO2)[C@@H](CN1CCCC1)NC(=O)C(F)(F)c1cc2cc(Cl)ccc2o1 [Compound 57, 2-(5-chlorobenzofuran-2-yl)-N-((1R,2R)-1-(2,3-dihydrobenzo[b][1,4]dioxin-6-yl)-1-deutero-1-hydroxy-3-(pyrrolidin-1-yl)propan-2-yl)-2,2-difluoroacetamide]	< 50 nM
O=C(N[C@H](CN1CCCC1)[C@H](O)c1ccc2c(c1)OCCO2)C(F)(F)c1cc2cc(Cl)ccc2o1 [Compound 11, 2-(5-chlorobenzofuran-2-yl)-N-((1R,2R)-1-(2,3-dihydrobenzo[b][1,4]dioxin-6-yl)-1-hydroxy-3-(pyrrolidin-1-yl)propan-2-yl)-2,2-difluoroacetamide]	< 50 nM
[2H]C([2H])(C(=O)N[C@H](CN1CCCC1)[C@H](O)c1ccc2c(c1)OCCO2)c1cc2cc(Cl)ccc2o1 [Compound 60, 2-(5-chlorobenzofuran-2-yl)-N-((1R,2R)-1-(2,3-dihydrobenzo[b][1,4]dioxin-6-yl)-1-hydroxy-3-(pyrrolidin-1-yl)propan-2-yl)-2,2-dideutero-acetamide]	< 50 nM
O=C(N[C@H](CN1CCCC1)[C@H](O)c1ccc2c(c1)OCCO2)C(F)(F)c1ccc2c(c1)OCCO2 [Compound 2, 2-(2,3-dihydrobenzo[b][1,4]dioxin-6-yl)-N-((1R,2R)-1-(2,3-dihydrobenzo[b][1,4]dioxin-6-yl)-1-hydroxy-3-(pyrrolidin-1-yl)propan-2-yl)-2,2-difluoroacetamide]	50 to 5000 nM
O=C(N[C@H](CN1CCCC1)[C@H](O)c1ccc(OC2CC2)c(Cl)c1)C(F)(F)c1cc2cc(C(F)(F)F)ccc2o1 [Compound 69, N-((1R,2R)-1-(3-chloro-4-cyclopropoxyphenyl)-1-hydroxy-3-(pyrrolidin-1-yl)propan-2-yl)-2,2-difluoro-2-(5-(trifluoromethyl)benzofuran-2-yl)acetamide]	< 50 nM

Same assay, conditions: Table 1; values marked *; MDCK cell lysate

Compound	% inhibition generated from Assay 1
O=C(N[C@H](CN1CCCC1)[C@H](O)c1ccc2c(c1)OCCO2)C(F)(F)Cc1cccc(-c2ccccn2)c1 [Compound 20, N-((1R,2R)-1-(2,3-dihydrobenzo[b][1,4]dioxin-6-yl)-1-hydroxy-3-(pyrrolidin-1-yl)propan-2-yl)-2,2-difluoro-3-(3-(pyridin-2-yl)phenyl)propanamide]	B* (the compound had a % inhibition of greater than or equal to about 3% but less than about 50%)

Same assay, conditions: Table 2; data marked by *

Compound	% inhibition generated from Assay 1
O=C(N[C@H](CN1CCCC1)[C@H](O)c1cnc2c(c1)OCCO2)C(F)(F)c1cc2cc(Cl)ccc2o1 [Compound 185, 2-(5-chlorobenzofuran-2-yl)-N-((1R,2R)-1-(2,3-dihydro-[1,4]dioxino[2,3-b]pyridin-7-yl)-1-hydroxy-3-(pyrrolidin-1-yl)propan-2-yl)-2,2-difluoroacetamide]	B* (the compound had a % inhibition of greater than or equal to about 3% but less than about 50%)
CC1(C)CCc2cc(C(O)[C@@H](CN3CCCC3)NC(=O)C(F)(F)CCc3ccc4ccccc4c3)ccc2O1 (stereo in doubt) [Compound 117, N-((1S,2R)-1-(2,2-dimethylchroman-6-yl)-1-hydroxy-3-(pyrrolidin-1-yl)propan-2-yl)-2,2-difluoro-4-(naphthalen-2-yl)butanamide]	B* (the compound had a % inhibition of greater than or equal to about 3% but less than about 50%)
O=C(N[C@H](CN1CCCC1)[C@H](O)c1cc(F)c2c(c1)OCCO2)C(=O)c1csc(-c2ccc(F)cc2)n1 [Compound 226, N-((1R,2R)-1-(8-fluoro-2,3-dihydrobenzo[b][1,4]dioxin-6-yl)-1-hydroxy-3-(pyrrolidin-1-yl)propan-2-yl)-2-(2-(4-fluorophenyl)thiazol-4-yl)-2-oxoacetamide]	B* (the compound had a % inhibition of greater than or equal to about 3% but less than about 50%)

Same assay, conditions: Table 2; data without asterisk; read-out: IC50 (nM) generated from Assay 1

Compound	IC50
O=C(N[C@H](CN1CCCC1)[C@H](O)c1ccc(OC2CC2)c(Cl)c1)C(F)(F)c1ccc(-c2ccc(F)cc2)cc1 [Compound 159, N-((1R,2R)-1-(3-chloro-4-cyclopropoxyphenyl)-1-hydroxy-3-(pyrrolidin-1-yl)propan-2-yl)-2,2-difluoro-2-(4′-fluoro-[1,1′-biphenyl]-4-yl)acetamide]	< 50 nM
CC(C)n1ncc2ccc(C(=O)C(=O)N[C@H](CN3CCCC3)[C@H](O)c3cc(F)c4c(c3)OCCO4)cc21 [Example 307, N-((1R,2R)-1-(8-fluoro-2,3-dihydrobenzo[b][1,4]dioxin-6-yl)-1-hydroxy-3-(pyrrolidin-1-yl)propan-2-yl)-2-(1-isopropyl-1H-indazol-6-yl)-2-oxoacetamide]	< 50 nM
O=C(N[C@H](CN1CCCC1)[C@H](O)c1ccc(OC2CC2)c(Cl)c1)C(=O)c1cccc(-c2ccc(F)cc2)c1 [Compound 251, N-((1R,2R)-1-(3-chloro-4-cyclopropoxyphenyl)-1-hydroxy-3-(pyrrolidin-1-yl)propan-2-yl)-2-(4′-fluoro-[1,1′-biphenyl]-3-yl)-2-oxoacetamide]	< 50 nM
O=C(N[C@H](CN1CCCC1)[C@H](O)c1ccc(OC2CC2)nc1)C(F)(F)CCc1ccc2cc(F)ccc2c1 [Compound 101, N-((1R,2R)-1-(6-cyclopropoxypyridin-3-yl)-1-hydroxy-3-(pyrrolidin-1-yl)propan-2-yl)-2,2-difluoro-4-(6-fluoronaphthalen-2-yl)butanamide]	< 50 nM
COc1cc([C@@H](O)[C@@H](CN2CCCC2)NC(=O)C(=O)c2cc3ccc(Cl)cc3s2)cc(F)c1OC(C)C [Example 348, 2-(6-chlorobenzo[b]thiophen-2-yl)-N-((1R,2R)-1-(3-fluoro-4-isopropoxy-5-methoxyphenyl)-1-hydroxy-3-(pyrrolidin-1-yl)propan-2-yl)-2-oxoacetamide]	50 to 5000 nM
CC(C)n1ncc2ccc(C(=O)C(=O)N[C@H](CN3CCCC3)[C@H](O)c3ccc(OC4CC4)c(Cl)c3)cc21 [Example 306, N-((1R,2R)-1-(3-chloro-4-cyclopropoxyphenyl)-1-hydroxy-3-(pyrrolidin-1-yl)propan-2-yl)-2-(1-isopropyl-1H-indazol-6-yl)-2-oxoacetamide]	< 50 nM
O=C(N[C@H](CN1CCCC1)[C@H](O)c1cc(F)c2c(c1)OCCO2)C(F)(F)c1ccc2cc(Cl)ccc2c1 [Compound 135, 2-(6-chloronaphthalen-2-yl)-2,2-difluoro-N-((1R,2R)-1-(8-fluoro-2,3-dihydrobenzo[b][1,4]dioxin-6-yl)-1-hydroxy-3-(pyrrolidin-1-yl)propan-2-yl)acetamide]	< 50 nM
CC(C)n1ccc(-c2ccc(C(=O)C(=O)N[C@H](CN3CCCC3)[C@H](O)c3cc(F)c4c(c3)OCCO4)cc2)n1 [Example 352, N-((1R,2R)-1-(8-fluoro-2,3-dihydrobenzo[b][1,4]dioxin-6-yl)-1-hydroxy-3-(pyrrolidin-1-yl)propan-2-yl)-2-(4-(1-isopropyl-1H-pyrazol-3-yl)phenyl)-2-oxoacetamide]	< 50 nM
O=C(N[C@H](CN1CCC1)[C@H](O)c1cc(F)c2c(c1)OCCO2)C(=O)c1ccc(N2CCOCC2)cc1 [Compound 369, N-((1R,2R)-3-(azetidin-1-yl)-1-(8-fluoro-2,3-dihydrobenzo[b][1,4]dioxin-6-yl)-1-hydroxypropan-2-yl)-2-(4-morpholinophenyl)-2-oxoacetamide]	< 50 nM
O=C(N[C@H](CN1CCCC1)[C@H](O)c1ccc(OC2CCOCC2)c(Cl)c1)C(F)(F)c1ccc(-c2ccc(F)cc2)cc1 [Compound 163, N-((1R,2R)-1-(3-chloro-4-((tetrahydro-2H-pyran-4-yl)oxy)phenyl)-1-hydroxy-3-(pyrrolidin-1-yl)propan-2-yl)-2,2-difluoro-2-(4′-fluoro-[1,1′-biphenyl]-4-yl)acetamide]	< 50 nM
O=C(N[C@H](CN1CCCC1)[C@H](O)c1ccc(OC2CC2)cc1)C(=O)c1ccc(-c2ccc(F)cc2)cc1 [Example 333, N-((1R,2R)-1-(4-cyclopropoxyphenyl)-1-hydroxy-3-(pyrrolidin-1-yl)propan-2-yl)-2-(4′-fluoro-[1,1′-biphenyl]-4-yl)-2-oxoacetamide]	< 50 nM

Same assay, conditions: Table 3; MDCK cell lysate; read-out: IC50 (nM) generated from Assay 1

Compound	IC50
O=C(N[C@H](CN1CCCC1)[C@H](O)c1ccc(OC2CC2)cc1)C(=O)c1cc2ccc(Cl)cc2s1 [Example 399, 2-(6-chlorobenzo[b]thiophen-2-yl)-N-((1R,2R)-1-(4-cyclopropoxyphenyl)-1-hydroxy-3-(pyrrolidin-1-yl)propan-2-yl)-2-oxoacetamide]	< 50 nM
O=C(N[C@H](CN1CCC1)[C@H](O)c1ccc(OC2CC2)c(F)c1)C(=O)c1cc2cc(Cl)ccc2s1 [Example 387, N-((1R,2R)-3-(azetidin-1-yl)-1-(4-cyclopropoxy-3-fluorophenyl)-1-hydroxypropan-2-yl)-2-(5-chlorobenzo[b]thiophen-2-yl)-2-oxoacetamide]	< 50 nM

Same assay, conditions: Table 3; values marked *; MDCK cell lysate

Compound	% inhibition generated from Assay 1
O=C(N[C@H](CN1CCCC1)[C@H](O)c1ccc(OC2CC2)c(Cl)c1)/C(CCc1ccc2cc(F)ccc2c1)=N/O [Example 406, (E)-N-((1R,2R)-1-(3-chloro-4-cyclopropoxyphenyl)-1-hydroxy-3-(pyrrolidin-1-yl)propan-2-yl)-4-(6-fluoronaphthalen-2-yl)-2-(hydroxyimino)butanamide]	A* (the compound had a % inhibition of a percent inhibition of greater than or equal to about 50%)
